Data: article PMC6099102, “Effect of the Nature of Donor Atoms on the Thermodynamic, Kinetic and Relaxation Properties of Mn(II) Complexes Formed With Some Trisubstituted 12-Membered Macrocyclic Ligands” (Frontiers in Chemistry, 2018)
Values joined by “and” are separate entries in the source; they are usually repeats but may differ in a detail not shown here. Equal entries are not always repeated.

Legend:
[1] = Protonation constants of the ligands by pH-potentiometric titration; type: physicochemical; settings: I = 0.15 M NaCl, 25 °C; for Σ log K2H: log K1H + log K2H
Experimental: The concentration of the ligand solutions was determined by pH-potentiometric titration in the presence and absence of an excess (5–10 fold) of MnCl2. For determining the protonation constants of the investigated ligands, pH-potentiometric titrations were made by means of 0.2 M standardized NaOH in 2 and 3 mM ligand solutions in the pH-range of 1.75–11.85. All equilibrium measurements were performed at a constant 0.15 M NaCl ionic strength at 25 °C. The protonation and the stability constants of the Mn(II) complexes were determined by pH-potentiometric titrations (DOTP, DO3A, PCTA, ODO3A, DO3P) while owing to the slow formation rates of Mn(II) complexes formed with amide type ligands, the stability constants of DOTAM, DOTMA, DO3AM^H, PC3AM^H, PC3AM^Gly, PC3AM^Pip complexes were determined by out-of-cell pH-potentiomertry in combination with ^1H relaxometry. The metal-to-ligand concentration ratio in the solutions was 1:1. For the calculation of protonation constants of the ligands and the log KMnL and log KMnLHi values of the complexes, mL–pH data pairs (50–180), obtained in the pH range of 1.75–11.85 or r1obs-pH data pairs (10–15 batch samples) obtained in the pH range of 2–4.5 were used (the samples were equilibrated for 4–7 days). The equilibrium constants characterizing the deprotonation that occurs at basic pH were determined from the data obtained via direct pH-potentiometric titrations performed on the pre-formed complexes.
The pH-potentiometric titrations were carried out with a Methrohm 888 Titrando titration workstation using a Metrohm-6.0233.100 combined electrode. The samples (6.00 mL) were thermostated at 25 °C. The samples were stirred and kept under inert gas (N2) to avoid the effect of CO2. KH-phthalate (pH = 4.005) and borax (pH = 9.177) buffers were used for the pH-calibration. The method proposed by Irving et al. was used for the calculation of H^+ concentrations from the measured pH values (Irving et al., [1967]). A 0.01 M HCl (I = 0.15 M set with NaCl) solution was titrated with standardized NaOH solution of known concentration (approx. 0.2 M). The correction factor obtained as difference of calculated pH and measured pH values was used to calculate the [H^+] in the samples. The ionic product of water was determined from the same titrations (HCl/NaOH) from the data collected in the pH range of 11.20–11.85.
The protonation and complexation equilibria of the macrocyclic ligands and their Mn(II) complexes have been studied by pH-potentiometric and relaxometric methods in the presence of 0.15 M NaCl whose ionic strength mimics the physiological conditions. The protonation constants of the ligands were evaluated by fitting the pH-V(mL) base data pairs collected in the pH-potentiometric titrations. The protonation equilibria of the ligands can be described by Equation (2). (a comparison of previously published log K^H data available in the Supplementary Material) together with the constants of H4DOTA, cis- and trans-H2DO2A derivatives given for comparison. (2) KiH=[HiL]/[Hi-1L][H^+],i=1,2,…

[2] = Dissociation kinetics of the Mn(II) complexes (acid catalyzed dissociation, metal or ligand exchange reactions); type: physicochemical; settings: I = 0.15 M NaCl, 25 °C
Experimental: The dissociation reactions were followed by UV-vis spectrophotometry at 269 nm for the pyclen derivatives or at 300 nm for other complexes in the pH range of 3.6–5.0 for the exchange reactions with Cu(II) and up to pH = 6.0 when Zn(II) was used as a ligand scavenger. The acid catalyzed dissociation reactions were performed in the HCl concentration range of 0.05–1.0 M. The concentration of the complexes in the samples was 0.25 mM, while the concentration of the exchanging metal ion in the metal initiated transchelation reactions was 10–40 times higher to ensure pseudo-first-order conditions. Relaxometry was used to follow the transchelation reactions of [Mn(DOTAM)]^2+, [Mn(DO3AM^H)]^2+, [Mn(DO3A)]^−, [Mn(PCTA)]^− and [Mn(ODO3A)]^− with Cu(II)/Zn(II) ions in the pH range of 3.6–5.5 (Figures S17–S19 in Supplementary Material). The concentration of the complexes in these samples was set to 1.0–2.0 mM to achieve relatively large change during the dissociation reaction. […] The temperature was maintained at 25 °C and the ionic strength of the solutions was kept constant at 0.15 M with NaCl. N,N′-dimethyl- (DMP) and N-methyl-piperazine (NMP) buffers (log K2H = 4.18 and 4.90 at 25 °C and I = 0.15 M NaCl, respectively) were used at 0.05 M concentration to keep the pH constant. The pseudo-first-order rate constants (kobs) were calculated by fitting the absorbance or relaxivity-time data pairs to Equation (1) (1) Xt=(X0-Xe)e^-kobst+Xe where Xt, X0, and Xe are the absorbance or relaxivity at time t, at the start and at equilibrium, respectively. The calculations were performed with the computer program Micromath Scientist, version 2.0 (Salt Lake City, UT, USA) using a standard least-squares procedure.
The kinetic inertness of the Mn(II) complexes is the other important parameter for the complexes considered for use in vivo. The inertness of Mn(II) complexes formed with trisubstituted 12-memberd macrocyclic ligands were characterized either by studying the rates of acid catalyzed dissociation or by studying transmetallation reactions occurring between the complexes and a suitable exchanging metal ion such as Zn(II) or Cu(II). The demetallation reactions of labile complexes were performed at high pH by following the ligand exchange reactions with trans-CDTA and DTPA ligands. The demetallation reactions were studied in the presence of a large Cu(II)/Zn(II)/trans-CDTA/DTPA excess or by using high acid concentration in order to ensure pseudo-first-order conditions (Equation 6). Scheme 1 outlines all the possible dissociation pathways for the Mn(II) complexes. […] The reactions of the released Mn(II) and L ligand with the exchanging L' and M' reactants are assumed to be very rapid.
The rate of dissociation can be expressed by the Equation (6), where kobs is the pseudo-first-order rate constant and [Mn(L)]t is the total concentration of the species containing [Mn(L)] complex. The [Mn(L)]t will differ slightly depending on the experimental conditions (in the presence of a large metal or ligand excess). As [Mn(L)]t = [Mn(L)] + [Mn(HL)] + [Mn(H2L)] + [Mn(L)M] + [Mn(L)(L')] + [Mn(HL)(L')] for reactions performed at high pH (in the pH range of 3.0–5.0 often applied in Cu(II) exchange reactions) will involve fewer protonated species while the acid catalyzed dissociation reactions run in the strongly acidic media (0.1–1.0 M acid concentration range) predominantly contain protonated species ([Mn(L)]t = [Mn(L)]+[Mn(HL)]+[Mn(H2L)]). (6) -d[MnL]t/dt=kobs[MnL]t
By taking into account the various complex species and the possible reaction pathways as well as the protonation and stability constants of the reactive intermediates, the following equation (Equation 7) can be derived to describe the rates of dissociation. […]

Compound	log K1H ([1]; ligand protonation constant)	log K2H ([1]; ligand protonation constant)	log K3H ([1]; ligand protonation constant)	log K4H ([1]; ligand protonation constant)	log K5H ([1]; ligand protonation constant)	Σ log K2H [1]	k1 (proton-assisted dissociation) [2]	log K6H ([1]; ligand protonation constant)	k1 (proton-assisted dissociation) ([2]; ligand exchange reaction with trans-CDTA^4− or DTPA^5− in the pH range 8-9.5)	k1 (proton-assisted dissociation) ([2]; stopped-flow in highly acidic condition, proton-assisted dissociation of the [Mn(HL)] complex)	t1/2 0.1 M HCl ([2]; half-life of dissociation calculated for 0.1 M H+)
O=C(O)CN1CCNCCN(CC(=O)O)CCN(CC(=O)O)CC1 [DO3A]	10.07 (5)	8.93 (6)	4.43 (9)	4.11 (7)	1.88 (7)	19.00	0.45 M⁻¹ s⁻¹				
O=P(O)(O)CN1CCNCCN(CP(=O)(O)O)CCN(CP(=O)(O)O)CC1 [DO3P]	12.55 (2)	11.37 (1)	8.57 (2)	7.02(2)	5.36 (2)	23.92		1.84 (2)	240000 M⁻¹ s⁻¹		
NC(=O)CN1CCN(CC(N)=O)Cc2cccc(n2)CN(CC(N)=O)CC1 [PC3AM^H]	8.76 (3)	4.10 (4)				12.86	0.0107 M⁻¹ s⁻¹				
O=C(O)CN1CCN(CC(=O)O)Cc2cccc(n2)CN(CC(=O)O)CC1 [PCTA]	9.97 (3)	6.73 (5)	3.22 (6)	1.40 (9)		16.70				0.112 M⁻¹ s⁻¹ and 0.109 M⁻¹ s⁻¹	
O=C(CN1CCN(CC(=O)N2CCCCC2)Cc2cccc(n2)CN(CC(=O)N2CCCCC2)CC1)N1CCCCC1.[Mn+2] [[Mn(PC3AM^Pip)]^2+]							(4.64 ± 0.04) × 10^−3 M^−1s^−1				25 min
